Test results as given in ChEMBL document CHEMBL3352227, “Synthesis, antimycobacterial and antibacterial evaluation of l-[(1R, 2S)-2-fluorocyclopropyl]fluoroquinolone derivatives containing an oxime functional moiety” (Eur J Med Chem, 2014).
In brackets after ≈: the same amount, converted by molar mass.

Columns and labels:
Type in all cases: functional
Escherichia coli [1] = assay: Antibacterial activity against extended-spectrum beta-lactamase producing Escherichia coli 12-15 after 18 to 24 hrs by standard twofold serial dilution method
Klebsiella pneumoniae [2] = assay: Antibacterial activity against Klebsiella pneumoniae 12-4 after 18 to 24 hrs by standard twofold serial dilution method
[3] = tested on: Staphylococcus epidermidis; assay: Antibacterial activity against methicillin-resistant Staphylococcus epidermidis 12-1 after 18 to 24 hrs by standard twofold serial dilution method
Escherichia coli [4] = assay: Antibacterial activity against Escherichia coli 12-1 after 18 to 24 hrs by standard twofold serial dilution method
Staphylococcus aureus [5] = assay: Antibacterial activity against Staphylococcus aureus ATCC 25923 after 18 to 24 hrs by standard twofold serial dilution method
Staphylococcus aureus [6] = assay: Antibacterial activity against methicillin-resistant Staphylococcus aureus 12-4 after 18 to 24 hrs by standard twofold serial dilution method
Staphylococcus aureus [7] = assay: Antibacterial activity against methicillin-sensitive Staphylococcus aureus 12-5 after 18 to 24 hrs by standard twofold serial dilution method
Staphylococcus aureus [8] = assay: Antibacterial activity against methicillin-sensitive Staphylococcus aureus 12-4 after 18 to 24 hrs by standard twofold serial dilution method
Pseudomonas aeruginosa [9] = assay: Antibacterial activity against Pseudomonas aeruginosa 12-14 after 18 to 24 hrs by standard twofold serial dilution method
Escherichia coli [10] = assay: Antibacterial activity against extended-spectrum beta-lactamase producing Escherichia coli 12-14 after 18 to 24 hrs by standard twofold serial dilution method
Klebsiella pneumoniae [11] = assay: Antibacterial activity against Klebsiella pneumoniae 12-2 after 18 to 24 hrs by standard twofold serial dilution method
Staphylococcus aureus [12] = assay: Antibacterial activity against methicillin-resistant Staphylococcus aureus 12-5 after 18 to 24 hrs by standard twofold serial dilution method
Staphylococcus aureus [13] = assay: Antibacterial activity against methicillin-sensitive Staphylococcus aureus 12-1 after 18 to 24 hrs by standard twofold serial dilution method
Staphylococcus aureus [14] = assay: Antibacterial activity against methicillin-resistant Staphylococcus aureus 12-2 after 18 to 24 hrs by standard twofold serial dilution method
Streptococcus pneumoniae [15] = assay: Antibacterial activity against Streptococcus pneumoniae ATCC 49619 after 18 to 24 hrs by standard twofold serial dilution method
Klebsiella pneumoniae [16] = assay: Antibacterial activity against extended-spectrum beta-lactamase producin Klebsiella pneumoniae 12-3 after 18 to 24 hrs by standard twofold serial dilution method
Escherichia coli [17] = assay: Antibacterial activity against extended-spectrum beta-lactamase producing Escherichia coli 12-2 after 18 to 24 hrs by standard twofold serial dilution method
Escherichia coli [18] = assay: Antibacterial activity against extended-spectrum beta-lactamase producing Escherichia coli 12-3 after 18 to 24 hrs by standard twofold serial dilution method
Klebsiella pneumoniae [19] = assay: Antibacterial activity against extended-spectrum beta-lactamase producin Klebsiella pneumoniae 12-14 after 18 to 24 hrs by standard twofold serial dilution method
[20] = tested on: Staphylococcus epidermidis; assay: Antibacterial activity against methicillin-sensitive Staphylococcus epidermidis 12-1 after 18 to 24 hrs by standard twofold serial dilution method
Streptococcus pneumoniae [21] = assay: Antibacterial activity against Streptococcus pneumoniae 12-18 after 18 to 24 hrs by standard twofold serial dilution method
Klebsiella pneumoniae [22] = assay: Antibacterial activity against Klebsiella pneumoniae 12-1 after 18 to 24 hrs by standard twofold serial dilution method
Klebsiella pneumoniae [23] = assay: Antibacterial activity against extended-spectrum beta-lactamase producin Klebsiella pneumoniae 12-7 after 18 to 24 hrs by standard twofold serial dilution method
Escherichia coli [24] = assay: Antibacterial activity against Escherichia coli ATCC 25922 after 18 to 24 hrs by standard twofold serial dilution method
[25] = tested on: Mycobacterium tuberculosis; assay: Antimycobacterial activity against Mycobacterium tuberculosis H37Rv ATCC 27294 by MABA method
[26] = tested on: Staphylococcus epidermidis; assay: Antibacterial activity against methicillin-sensitive Staphylococcus epidermidis 12-3 after 18 to 24 hrs by standard twofold serial dilution method
Staphylococcus aureus [27] = assay: Antibacterial activity against methicillin-sensitive Staphylococcus aureus 12-2 after 18 to 24 hrs by standard twofold serial dilution method
Klebsiella pneumoniae [28] = assay: Antibacterial activity against extended-spectrum beta-lactamase producin Klebsiella pneumoniae 12-4 after 18 to 24 hrs by standard twofold serial dilution method
Pseudomonas aeruginosa [29] = assay: Antibacterial activity against Pseudomonas aeruginosa 12-12 after 18 to 24 hrs by standard twofold serial dilution method
[30] = tested on: Staphylococcus epidermidis; assay: Antibacterial activity against methicillin-sensitive Staphylococcus epidermidis 12-8 after 18 to 24 hrs by standard twofold serial dilution method
[31] = tested on: Staphylococcus epidermidis; assay: Antibacterial activity against methicillin-sensitive Staphylococcus epidermidis 12-6 after 18 to 24 hrs by standard twofold serial dilution method
[32] = tested on: Staphylococcus epidermidis; assay: Antibacterial activity against methicillin-resistant Staphylococcus epidermidis 12-6 after 18 to 24 hrs by standard twofold serial dilution method

Structure (SMILES) | MIC (Escherichia coli [1]) [mg/L] | MIC (Klebsiella pneumoniae [2]) [mg/L] | MIC [3] [mg/L] | MIC (Escherichia coli [4]) [mg/L] | MIC (Staphylococcus aureus [5]) [mg/L] | MIC (Staphylococcus aureus [6]) [mg/L] | MIC (Staphylococcus aureus [7]) [mg/L] | MIC (Staphylococcus aureus [8]) [mg/L] | MIC (Pseudomonas aeruginosa [9]) [mg/L] | MIC (Escherichia coli [10]) [mg/L] | MIC (Klebsiella pneumoniae [11]) [mg/L] | MIC (Staphylococcus aureus [12]) [mg/L] | MIC (Staphylococcus aureus [13]) [mg/L] | MIC (Staphylococcus aureus [14]) [mg/L] | MIC (Streptococcus pneumoniae [15]) [mg/L] | MIC (Klebsiella pneumoniae [16]) [mg/L] | MIC (Escherichia coli [17]) [mg/L] | MIC (Escherichia coli [18]) [mg/L] | MIC (Klebsiella pneumoniae [19]) [mg/L] | MIC [20] [mg/L] | further results
CO/N=C1/CN(c2c(F)cc3c(=O)c(C(=O)O)cn([C@@H]4C[C@@H]4F)c3c2OC)[C@H]1CN | 64 (≈ 152 µM) | 0.5 (≈ 1.18 µM) | 2 (≈ 4.73 µM) | 2 (≈ 4.73 µM) | < 0.008 | 8 (≈ 18.9 µM) | 0.125 (≈ 0.296 µM) | 0.06 (≈ 0.142 µM) | 16 (≈ 37.9 µM) | 128 (≈ 303 µM) | 0.5 (≈ 1.18 µM) | 4 (≈ 9.47 µM) | 0.125 (≈ 0.296 µM) | 8 (≈ 18.9 µM) | 0.25 (≈ 0.592 µM) | 64 (≈ 152 µM) | 64 (≈ 152 µM) | 32 (≈ 75.8 µM) | 64 (≈ 152 µM) | 0.125 (≈ 0.296 µM) | MIC (Streptococcus pneumoniae [21]): 2 mg/L (≈ 4.73 µM); MIC (Klebsiella pneumoniae [22]): 0.5 mg/L (≈ 1.18 µM); MIC (Klebsiella pneumoniae [23]): 2 mg/L (≈ 4.73 µM); MIC (Escherichia coli [24]): 0.25 mg/L (≈ 0.592 µM); MIC [25]: 0.5 mg/L (≈ 1.18 µM); MIC [26]: 0.125 mg/L (≈ 0.296 µM); MIC (Staphylococcus aureus [27]): 0.125 mg/L (≈ 0.296 µM); MIC (Klebsiella pneumoniae [28]): 16 mg/L (≈ 37.9 µM); MIC (Pseudomonas aeruginosa [29]): 2 mg/L (≈ 4.73 µM); MIC [30]: 2 mg/L (≈ 4.73 µM); MIC [31]: 0.125 mg/L (≈ 0.296 µM); MIC [32]: 2 mg/L (≈ 4.73 µM)
NC[C@H]1/C(=N\OCc2ccccc2)CN1c1nc2c(cc1F)c(=O)c(C(=O)O)cn2[C@@H]1C[C@@H]1F | > 128 | 1 (≈ 2.13 µM) | 16 (≈ 34.1 µM) | 0.25 (≈ 0.533 µM) | 0.125 (≈ 0.266 µM) | 32 (≈ 68.2 µM) | 0.25 (≈ 0.533 µM) | 0.125 (≈ 0.266 µM) | 64 (≈ 136 µM) | > 128 | 1 (≈ 2.13 µM) | 32 (≈ 68.2 µM) | 0.25 (≈ 0.533 µM) | 64 (≈ 136 µM) | 0.5 (≈ 1.07 µM) | > 128 | > 128 | 32 (≈ 68.2 µM) | > 128 | 0.25 (≈ 0.533 µM) | MIC (Streptococcus pneumoniae [21]): 4 mg/L (≈ 8.52 µM); MIC (Klebsiella pneumoniae [22]): 0.5 mg/L (≈ 1.07 µM); MIC (Klebsiella pneumoniae [23]): 4 mg/L (≈ 8.52 µM); MIC (Escherichia coli [24]): 0.125 mg/L (≈ 0.266 µM); MIC [25]: 2 mg/L (≈ 4.26 µM); MIC [26]: 0.5 mg/L (≈ 1.07 µM); MIC (Staphylococcus aureus [27]): 0.25 mg/L (≈ 0.533 µM); MIC (Klebsiella pneumoniae [28]): 16 mg/L (≈ 34.1 µM); MIC (Pseudomonas aeruginosa [29]): 4 mg/L (≈ 8.52 µM); MIC [30]: 8 mg/L (≈ 17 µM); MIC [31]: 0.25 mg/L (≈ 0.533 µM); MIC [32]: 8 mg/L (≈ 17 µM)
CCO/N=C1/CN(c2cc3c(cc2F)c(=O)c(C(=O)O)cn3[C@@H]2C[C@@H]2F)[C@@H]1CN | > 128 | 0.25 (≈ 0.615 µM) | 8 (≈ 19.7 µM) | 0.25 (≈ 0.615 µM) | < 0.008 | 32 (≈ 78.7 µM) | 0.03 (≈ 0.0738 µM) | 0.03 (≈ 0.0738 µM) | 32 (≈ 78.7 µM) | 64 (≈ 157 µM) | 0.25 (≈ 0.615 µM) | 32 (≈ 78.7 µM) | 0.06 (≈ 0.148 µM) | 32 (≈ 78.7 µM) | 0.25 (≈ 0.615 µM) | 64 (≈ 157 µM) | 128 (≈ 315 µM) | 16 (≈ 39.4 µM) | 64 (≈ 157 µM) | 0.06 (≈ 0.148 µM) | MIC (Streptococcus pneumoniae [21]): 1 mg/L (≈ 2.46 µM); MIC (Klebsiella pneumoniae [22]): 0.25 mg/L (≈ 0.615 µM); MIC (Klebsiella pneumoniae [23]): 1 mg/L (≈ 2.46 µM); MIC (Escherichia coli [24]): 0.06 mg/L (≈ 0.148 µM); MIC [25]: 2 mg/L (≈ 4.92 µM); MIC [26]: 0.125 mg/L (≈ 0.308 µM); MIC (Staphylococcus aureus [27]): 0.06 mg/L (≈ 0.148 µM); MIC (Klebsiella pneumoniae [28]): 16 mg/L (≈ 39.4 µM); MIC (Pseudomonas aeruginosa [29]): 1 mg/L (≈ 2.46 µM); MIC [30]: 4 mg/L (≈ 9.84 µM); MIC [31]: 0.06 mg/L (≈ 0.148 µM); MIC [32]: 64 mg/L (≈ 157 µM)
